The source of these data is patent US11357779B2 (G1 Therapeutics, Inc., priority 2018, dated 2022).

The nature of data set [1]: Crystallization and slurry experiments, morphic forms of Compound II (XRPD, characterization). It counts as physicochemical. Particulars: morphic forms (XRPD patterns) of Compound II. The method, then: Eleven unique XRPD patterns (Form A-Form K) of Compound II were obtained from crystallization and slurry experiments using various solvents.
Forms A, B, and D were evaluated as solid state forms.

Data set [2] in a line: TG and TG-IR analysis of Form B. It counts as physicochemical. Particulars: TG-IR. The method, then:
The TG analyses were performed using a TA Instrument Q5000 thermogravimetric analyzer. Temperature calibration was performed using nickel and Alumel. The sample was placed in a platinum pan and inserted into the TG furnace. The furnace was heated under a nitrogen purge to 350° C. at a rate of 10° C./min.
Thermogravimetric infrared (TG-IR) analysis was performed on a TA Instruments Q5000 IR thermogravimetric (TG) analyzer interfaced to a Magna-IR 560@ Fourier transform infrared (FT-IR) spectrophotometer (Thermo Nicolet) equipped with an Ever-Glo mid/far IR source, a potassium bromide (KBr) beamsplitter, and a mercury cadmium telluride (MCT-A) detector. The FT-IR wavelength verification was performed using polystyrene, and the TG calibration standards were nickel and Alumel™. The sample was placed in a platinum sample pan and the pan was inserted into the TG furnace. The TG instrument was started first, immediately followed by the FT-IR instrument. The TG instrument was operated under a flow of helium at 90 and 10 cc/minute for the purge and balance, respectively. The furnace was heated under helium at a rate of 20° C./minute to a final temperature of approximately 140° C. IR spectra were collected approximately every 32 seconds for approximately 7.5 minutes. Each IR spectrum represents 32 co-added scans collected at a spectral resolution of 4 cm-1. Volatiles were identified from a search of the High Resolution Nicolet Vapor Phase spectral library.
A TG-IR experiment was carried out on pure Form B (Sample 11 from the small-scale slurry experiments) at […] in an effort to investigate the stability of Form B at elevated temperature by monitoring potential release of hydrogen chloride.

Data set [3] can be described thus: Stability study under thermal stress, 60° C. for 7 days. The data set is classed as physicochemical. The method, then: Forms A, B, and D were stored in an oven maintained at 60° C. for 7 days.
Data set [4] is described as follows: Dynamic vapor sorption (moisture sorption) experiment. The method, then: Dynamic vapor sorption experiments were performed on Form A, Form B, and Form D. Table 103 provides the results of the DVS experiment.
Data set [5] in a line: Vacuum drying experiments of Form B. The data set is classed as physicochemical. Particulars: for Weight Loss (calculated by weight before and after drying): Vacuum oven; for XRPD Result: after Vacuum oven. The source says: Weighted amounts of impure Form B and pure Form B samples from the previous experiments (Samples 14, 8, 11, 19, 21, and 23) were vacuum dried at ambient or elevated temperatures using various vacuum levels from approximately 14 in Hg up 27-28 in Hg. The resulting materials were weighted out prior to submission for XRPD analysis.
The XRPD pattern of the resulting material was consistent with Form B, however, tiny shifting in a few peak positions in the XRPD pattern was observed (FIG. 26).

The nature of data set [6]: Solubility estimate by aliquot addition with visual observation. The data set is classed as physicochemical. How it is done:
Solubility estimates of impure Form B were attempted in various predominantly HCl acidic aqueous acetone solvent mixtures using an aliquot addition method that involved visual observation. Aliquots of various solvents or diluent/organic solvent mixtures were added to measured amounts of impure Form B with agitation (typically sonication) at ambient temperature until complete dissolution was achieved, as judged by visual observation. Solubilities were calculated based on the total solvent used to give a solution; actual solubilities may be greater because of the volume of solvent portions utilized or a slow rate of dissolution. […] If dissolution occurred at the first aliquot, the value was reported as “>”. Due to the haziness of the obtained samples, effective solubility estimates were difficult to discern.

The mark [7] stands for this setting: 0.1M HCl:acetone 20:80, ambient.
The mark [8] stands for this setting: 0.5M HCl:acetone 10:90, ambient.
Setting [9] is: 0.5M HCl:acetone 20:80, ambient.
[10] abbreviates: 1.0M HCl:acetone 75:25, ambient.

“Also recorded” adds a separate entry of the source.

Consider `CC(C)N1CCN(c2ccc(Nc3ncc4cc5n(c4n3)C3(CCCCC3)CNC5=O)nc2)CC1.Cl.Cl` [A], for which the “Possible Form” value in data set [1] is reported as “Hydrate”.
Same read-out and setting: in the case of `CC(C)N1CCN(c2ccc(Nc3ncc4cc5n(c4n3)C3(CCCCC3)CNC5=O)nc2)CC1.Cl.Cl` [B] it was “Hydrate”.
Same read-out and setting: in the case of `CC(C)N1CCN(c2ccc(Nc3ncc4cc5n(c4n3)C3(CCCCC3)CNC5=O)nc2)CC1.Cl.Cl` [C] it was “EtOAc”.
As to `CC(C)N1CCN(c2ccc(Nc3ncc4cc5n(c4n3)C3(CCCCC3)CNC5=O)nc2)CC1.Cl.Cl` [Compound II, Form B], the “Weight (%)” value was found to be 99.93% in data set [2] (0.38 min, 36.60 ° C.); 99.87% in data set [2] (0.55 min, 40.20 ° C.); 99.77% in data set [2] (0.73 min, 43.80 ° C.); 99.63% in data set [2] (0.90 min, 47.40 ° C.); 99.46% in data set [2] (1.08 min, 51.00 ° C.); 99.26% in data set [2] (1.25 min, 54.60 ° C.). Moreover, the “Weight (%)” value is 99.03% in data set [2] (1.43 min, 58.20 ° C.); 98.79% in data set [2] (1.61 min, 61.80 ° C.); 98.52% in data set [2] (1.78 min, 65.40 ° C.); 98.22% in data set [2] (1.96 min, 69.00 ° C.); 97.86% in data set [2] (2.14 min, 72.60 ° C.); 97.44% in data set [2] (2.32 min, 76.20 ° C.). The “Weight (%)” value in data set [2] (2.50 min, 79.80 ° C.) is recorded as 96.95%; in data set [2] (2.68 min, 83.40 ° C.), 96.45%; in data set [2] (2.86 min, 87.00 ° C.), 95.97%; in data set [2] (3.04 min, 90.60 ° C.), 95.57%; in data set [2] (3.23 min, 94.20 ° C.), 95.23%; in data set [2] (3.41 min, 97.80 ° C.), 94.95%. For the same compound, the “Weight (%)” value came out at 94.71% in data set [2] (3.59 min, 101.40 ° C.); 94.50% in data set [2] (3.77 min, 105.00 ° C.); 94.32% in data set [2] (3.95 min, 108.60 ° C.); 94.18% in data set [2] (4.13 min, 112.20 ° C.); 94.06% in data set [2] (4.31 min, 115.80 ° C.); 93.86% in data set [2] (4.68 min, 123.00 ° C.). Further, the “Weight (%)” value was 93.78% in data set [2] (4.86 min, 126.60 ° C.); 93.71% in data set [2] (5.04 min, 130.20 ° C.); 93.65% in data set [2] (5.22 min, 133.80 ° C.).
In the case of `CC(C)N1CCN(c2ccc(Nc3ncc4cc5n(c4n3)C3(CCCCC3)CNC5=O)nc2)CC1.Cl.Cl` [D], the “Possible Form” value in data set [1] is on record as “Hydrate”.
On the same count and under the same terms, in the case of `CC(C)N1CCN(c2ccc(Nc3ncc4cc5n(c4n3)C3(CCCCC3)CNC5=O)nc2)CC1.Cl.Cl` [E] it was “Acetone”.
Same read-out and setting: in the case of `CC(C)N1CCN(c2ccc(Nc3ncc4cc5n(c4n3)C3(CCCCC3)CNC5=O)nc2)CC1.Cl.Cl` [F] it was “Unstable”.
On to `CC(C)N1CCN(c2ccc(Nc3ncc4cc5n(c4n3)C3(CCCCC3)CNC5=O)nc2)CC1.Cl.Cl` [Form A], for which the “XRPD pattern after thermal stress” value in data set [3] is “A new pattern was found; also recorded: converted to a new Form”. Besides, the moisture adsorbed stood at 14.9 wt % in data set [4] (60% RH) and 15.8 wt % in data set [4] (90% RH). In data set [4] (DVS, 60% RH), the “% wt change at 60% RH” value worked out at 14.9 % wt. The “% wt change at 90% RH” value in data set [4] (DVS, 90% RH) came out at 15.8 % wt. Moreover, the “stability in the moisture sorption experiment (XRPD of dried sample)” value in data set [4] (after DVS, dried at 60° C. and 0% RH) is recorded as “unstable; also recorded: not stable”. In addition, the “XRPD (post DVS)” value in data set [4] (after moisture sorption experiment, dried at 60° C. and 0% RH) is on record as “Form K”.
In the case of `CC(C)N1CCN(c2ccc(Nc3ncc4cc5n(c4n3)C3(CCCCC3)CNC5=O)nc2)CC1.Cl.Cl` [Form C], the “XRPD pattern after thermal stress” value in data set [3] is “remained unchanged”.
`CC(C)N1CCN(c2ccc(Nc3ncc4cc5n(c4n3)C3(CCCCC3)CNC5=O)nc2)CC1.Cl.Cl` [G]: the “Possible Form” value in data set [1] is given as “Anhydrate”.
Turning to `CC(C)N1CCN(c2ccc(Nc3ncc4cc5n(c4n3)C3(CCCCC3)CNC5=O)nc2)CC1.Cl.Cl` [H], in data set [1], the “Possible Form” value was “n-PrOH”.
For the compound `CC(C)N1CCN(c2ccc(Nc3ncc4cc5n(c4n3)C3(CCCCC3)CNC5=O)nc2)CC1.Cl.Cl` [Sample 11], in data set [5] (22° C., 0.5 h (~14 in Hg)), the “Weight Loss (calculated by weight before and after drying)” value is given as “Weight loss: 1.8%”; the “XRPD Result” value is “Form B tiny peak”.
For `CC(C)N1CCN(c2ccc(Nc3ncc4cc5n(c4n3)C3(CCCCC3)CNC5=O)nc2)CC1.Cl.Cl` [Sample 19], in data set [5] (RT, 1.0 h (~27-28 in Hg)), the “Weight Loss (calculated by weight before and after drying)” value is given as “Weight loss: 9.7%”; the “XRPD Result” value is “Form B + broad”.
With `CC(C)N1CCN(c2ccc(Nc3ncc4cc5n(c4n3)C3(CCCCC3)CNC5=O)nc2)CC1.Cl.Cl` [Sample 21], in data set [5] (22° C., 0.5 h (~28 in Hg)), the “Weight Loss (calculated by weight before and after drying)” value is “Weight loss: 30.6%”.
Consider `CC(C)N1CCN(c2ccc(Nc3ncc4cc5n(c4n3)C3(CCCCC3)CNC5=O)nc2)CC1.Cl.Cl` [Sample 23], for which, in data set [5] (22° C., 1.0 h (~27-28 in Hg)), the “Weight Loss (calculated by weight before and after drying)” value is “Weight loss: 4.7%”; the “XRPD Result” value is reported as “Most likely Form B”.
Usually Solubility stands for how much of the substance goes into solution per volume. For the compound `CC(C)N1CCN(c2ccc(Nc3ncc4cc5n(c4n3)C3(CCCCC3)CNC5=O)nc2)CC1.Cl.Cl` [impure Form B], the Observation entry in data set [6] (setting [7]) is on record as “solids remained”; in data set [6] (setting [8]) it was “solids remained”; in data set [6] (setting [9]), “solids remained”; in data set [6] (1M HCl:acetone 5:95, ambient), “solids remained”; in data set [6] (1M HCl:acetone 10:90, ambient), “solids remained”; in data set [6] (1M HCl:acetone 20:80, ambient), “solids remained”. The Observation result in data set [6] (1M HCl:acetone 33:67, ambient) is “hazy solution”; in data set [6] (1M HCl:acetone 50:50, ambient) it was “hazy solution”; in data set [6] (1M HCl:acetone 60:40, ambient) it was “hazy solution”; in data set [6] (1M HCl:acetone 67:33, ambient), “hazy solution”; in data set [6] (setting [10]), “hazy solution”; in data set [6] (2.0M HCl, ambient), “hazy solution”. The Observation entry in data set [6] (5.0M HCl, ambient) was “hazy solution”; in data set [6] (5.0M HCl:water 1:2, ambient) it was “clear solution”; in data set [6] (Water, ambient), “solids remained”; in data set [6] (Water:acetone 1:2, ambient), “hazy solution”; in data set [6] (Water:acetone 3:1, ambient) it was “solids remained”. For the same compound, the Solubility in data set [6] (setting [7]) is given as below 1 mg/mL; in data set [6] (setting [8]), below 1 mg/mL; in data set [6] (setting [9]), below 1 mg/mL; in data set [6] (1M HCl:acetone 5:95, ambient), below 1 mg/mL; in data set [6] (1M HCl:acetone 10:90, ambient), below 1 mg/mL; in data set [6] (1M HCl:acetone 20:80, ambient) it was below 1 mg/mL. Also, the Solubility is on record as 2 mg/mL in data set [6] (1M HCl:acetone 33:67, ambient); 4 mg/mL in data set [6] (1M HCl:acetone 50:50, ambient); 4 mg/mL in data set [6] (1M HCl:acetone 60:40, ambient); 6 mg/mL in data set [6] (1M HCl:acetone 67:33, ambient); 7 mg/mL in data set [6] (setting [10]); 4 mg/mL in data set [6] (2.0M HCl, ambient). For the same compound, the Solubility was 3 mg/mL in data set [6] (5.0M HCl, ambient); 7 mg/mL in data set [6] (5.0M HCl:water 1:2, ambient); 3 to 7 mg/mL in data set [6] (HCl acidic aqueous acetone solvent mixtures, ambient temperature, visual estimate); below 7 mg/mL in data set [6] (Water, ambient); 3 mg/mL in data set [6] (Water:acetone 1:2, ambient); below 3 mg/mL in data set [6] (Water:acetone 3:1, ambient).
